Test results as given in patent US20200048308A1, “INFLUENZA VIRUS NE[…]” (priority 2016, published 2020).
Like-named read-outs stand apart in the source and are kept apart here. Where a SMILES comes first, the peptide text is derived from it.

Columns and labels:
[1] = target: H1/Nca HA (biotinylated full length trimeric HA, A/New Caledonia/20/1999) (Influenza A virus, UniProt Q6WG00); test: AlphaLISA competition assay with HB80.4, H1/NCa HA; assay type: binding, influenza A virus H1N1 A/New Caledonia/20/1999
Excerpt: (§1) Binding competition studies were designed to test compounds of the invention for competition with other well characterized HA binding proteins (such as e.g. CR9114, CR6261 and HB80.4) with known epitopes on HA. The epitopes where either located at the stem of the HA (viral membrane proximal part of HA) or, for control purposes, at the head of HA (viral membrane distal part of HA). If competition was observed, it was assumed that both molecules bind to a similar or at least overlapping epitope at the surface of HA. Competition with a HA head- and stem-binder was interpreted as unspecific binding.
(§2) Hereto an AlphaLISA competition assay (Perkin Elmer) was established which relied on biotinylated full length and trimeric HA proteins (Protein Sciences, 10 μL, 0.5 nM final concentration in 50 μL) bound by HA-specific binders. The interaction between HA and the binder was detected after 1 h incubation at room temperature (RT) with two beads, a streptavidin donor bead recognizing HA (10 μL of 10 μg/mL) and an anti Fc bead (10 μg/mL) recognizing the IgGs used. If after an additional hour of incubation at RT the excited donor bead (680 nm) and acceptor bead are in close proximity, an energy transfer (singlet oxygen) can be measured as a luminescence signal of the acceptor bead (Perkin Elmer EnVision plate reader). The signal intensity in this homogeneous assay format is directly proportional to the binding strength (affinity/avidity) between both binding partners.

[2] = target: H1/Cal HA (biotinylated full length trimeric HA, A/California/07/2009) (Influenza A virus, UniProt C3W5X2); test: AlphaLISA competition assay with HB80.4, H1/Cal HA; assay type: binding, influenza A virus H1N1 A/California/07/2009
Excerpt: as §1, §2

[3] = ALC_H1_NCa_HB80.4 calculated pIC50, AlphaLISA competition with HB80.4 on H1 NCa HA, 0.5 nM HA

Structure (SMILES) | IC50 [1] | IC50 [2] | IC50 [1, 3]
CSCC[C@@H]1NC(=O)CNC(=O)CNC(=O)[C@H](C)NC(=O)[C@H](C(C)C)NC(=O)CNC(=O)[C@H](CC(C)C)NC(=O)[C@@H]2CCCN2C(=O)[C@H](CC(=O)O)NC(=O)[C@H](CCC(=O)O)NC(=O)[C@H](Cc2ccc(O)cc2)NC(=O)[C@H](CC(C)C)NC(=O)[C@H](CO)NC(=O)[C@H]2CCCN2C(=O)CNC(=O)[C@H](C(C)C)NC(=O)CNC1=O [CP141083, D-Pro-Ser-Leu-Tyr-Glu-Asp-Pro-Leu-Gly-Val-Ala-Gly-Gly-Met-Gly-Val-Gly] | 10 µM | 5.01 µM | –
CSCC[C@H](NC(=O)CNC(=O)CNC(=O)[C@H](C)NC(=O)[C@@H](NC(=O)CNC(=O)[C@H](CC(C)C)NC(=O)[C@@H]1CCCN1C(=O)[C@H](CC(=O)O)NC(=O)[C@H](CCC(=O)O)NC(=O)[C@H](Cc1ccc(O)cc1)NC(=O)[C@H](CC(C)C)NC(=O)[C@H](CO)NC(=O)[C@@H](NC(=O)CCC(=O)O)C(C)C)C(C)C)C(=O)NCC(=O)N[C@H](C(=O)N[C@@H](Cc1ccc(O)cc1)C(N)=O)C(C)C [CP141074, Suc-Val-Ser-Leu-Tyr-Glu-Asp-Pro-Leu-Gly-Val-Ala-Gly-Gly-Met-Gly-Val-Tyr-NH2] | – | 3.98 µM | 5.01 µM
CC[C@@H]1NC(=O)[C@H](C(C)C)NC(=O)CNC(=O)[C@H](CCCc2ccccc2)NC(=O)[C@@H]2CCCN2C(=O)[C@H](CC(=O)O)NC(=O)[C@H](CCC(=O)O)NC(=O)[C@H](Cc2ccc(O)cc2)NC(=O)[C@H](CC(C)C)NC(=O)CNC(=O)[C@H]2CCCN2C(=O)CNC(=O)[C@H](CCSC)NC(=O)CNC(=O)CNC1=O [CP141092, Gly-Leu-Tyr-Glu-Asp-Pro-Ph5-Gly-Val-Abu-Gly-Gly-Met-Gly-D-Pro] (HELM PEPTIDE1{[Abu].G.G.M.G.[dP].G.L.Y.E.D.P.[O=C([C@H](CCCc1ccccc1)N[*:1])[*:2]].G.V}$PEPTIDE1,PEPTIDE1,1:R1-15:R2$$$V2.0) | 0.251 µM | 0.398 µM | –
CCCC[C@@H]1NC(=O)[C@H](CCC(=O)O)NC(=O)CNC(=O)[C@H](C)NC(=O)[C@H](C(C)C)NC(=O)CNC(=O)[C@H](CC(C)C)NC(=O)[C@@H]2CCCN2C(=O)[C@H](CC(=O)O)NC(=O)[C@H](CCCNC(=N)N)NC(=O)[C@H](Cc2ccc(O)cc2)NC(=O)[C@@H](NC(=O)CCC(=O)O)CSSC[C@@H](C(N)=O)NC1=O [CP141089, Suc-Cys-Tyr-Arg-Asp-Pro-Leu-Gly-Val-Ala-Gly-Glu-Nlu-Cys-NH2] | 50.1 µM | 25.1 µM | –
CCCC[C@H](NC(=O)CNC(=O)CNC(=O)[C@H](C)NC(=O)[C@@H](NC(=O)CNC(=O)[C@H](CC(C)C)NC(=O)[C@@H]1CCCN1C(=O)[C@H](CC(=O)O)NC(=O)[C@H](CCCNC(=N)N)NC(=O)[C@H](Cc1ccc(O)cc1)NC(=O)[C@H](CC(C)C)NC(=O)[C@H](CO)NC(=O)[C@@H](NC(=O)CCC(=O)O)C(C)C)C(C)C)C(=O)NCC(=O)N[C@H](C(=O)N[C@@H](Cc1ccc(O)cc1)C(N)=O)C(C)C [CP141081, Suc-Val-Ser-Leu-Tyr-Arg-Asp-Pro-Leu-Gly-Val-Ala-Gly-Gly-Nlu-Gly-Val-Tyr-NH2] | 7.94 µM | 3.16 µM | –
CSCC[C@H](NC(=O)CNC(=O)CNC(=O)[C@H](C)NC(=O)[C@@H](NC(=O)CNC(=O)[C@H](CC(C)C)NC(=O)[C@@H]1CCCN1C(=O)[C@H](CC(=O)O)NC(=O)[C@H](CCCNC(=N)N)NC(=O)[C@H](Cc1ccc(O)cc1)NC(=O)[C@H](CC(C)C)NC(=O)[C@H](CO)NC(=O)[C@@H](NC(=O)CCC(=O)O)C(C)C)C(C)C)C(=O)NCC(=O)N[C@H](C(=O)N[C@@H](Cc1ccc(O)cc1)C(N)=O)C(C)C [CP141073, Suc-Val-Ser-Leu-Tyr-Arg-Asp-Pro-Leu-Gly-Val-Ala-Gly-Gly-Met-Gly-Val-Tyr-NH2] | – | 2 µM | 6.31 µM
CC[C@H](NC(=O)[C@@H](NC(=O)CNC(=O)[C@H](CCCc1ccccc1)NC(=O)[C@@H]1CCCN1C(=O)[C@H](CC(=O)O)NC(=O)[C@H](CCCNC(=N)N)NC(=O)[C@H](Cc1ccc(O)cc1)NC(=O)[C@H](CC(C)C)NC(=O)[C@H](CO)NC(=O)[C@@H](NC(=O)CCC(=O)O)C(C)C)C(C)C)C(=O)NCC(=O)N[C@@H](CCC(=O)O)C(=O)N[C@@H](CCSC)C(=O)NCC(=O)N[C@H](C(=O)N[C@@H](Cc1ccc(O)cc1)C(N)=O)C(C)C [CP141090, Suc-Val-Ser-Leu-Tyr-Arg-Asp-Pro-Ph5-Gly-Val-Abu-Gly-Glu-Met-Gly-Val-Tyr-NH2] (HELM PEPTIDE1{[O=C(O)CCC(=O)[*:2]].V.S.L.Y.R.D.P.[O=C([C@H](CCCc1ccccc1)N[*:1])[*:2]].G.V.[Abu].G.E.M.G.V.Y.[am]}$$$$V2.0) | 15.8 µM | 10 µM | –
CSCC[C@@H]1NC(=O)[C@H](CCC(=O)O)NC(=O)CNC(=O)[C@H](C)NC(=O)[C@H](C(C)C)NC(=O)CNC(=O)[C@H](CC(C)C)NC(=O)[C@@H]2CCCN2C(=O)[C@H](CC(=O)O)NC(=O)[C@H](CCCNC(=N)N)NC(=O)[C@H](Cc2ccc(O)cc2)NC(=O)[C@@H](NC(=O)CCC(=O)O)CSSC[C@@H](C(N)=O)NC1=O [CP141072, Suc-Cys-Tyr-Arg-Asp-Pro-Leu-Gly-Val-Ala-Gly-Glu-Met-Cys-NH2] | 12.6 µM | 15.8 µM | –
CSCC[C@H](NC(=O)[C@H](CCC(=O)O)NC(=O)CNC(=O)[C@H](C)NC(=O)[C@@H](NC(=O)CNC(=O)[C@H](CC(C)C)NC(=O)[C@@H]1CCCN1C(=O)[C@H](CC(=O)O)NC(=O)[C@H](CCCNC(=N)N)NC(=O)[C@H](Cc1ccc(O)cc1)NC(=O)[C@H](CC(C)C)NC(=O)[C@H](CO)NC(=O)[C@@H](NC(=O)CCC(=O)O)C(C)C)C(C)C)C(=O)NCC(=O)N[C@H](C(=O)N[C@@H](Cc1ccc(O)cc1)C(N)=O)C(C)C [CP141075, Suc-Val-Ser-Leu-Tyr-Arg-Asp-Pro-Leu-Gly-Val-Ala-Gly-Glu-Met-Gly-Val-Tyr-NH2] (HELM PEPTIDE1{[O=C(O)CCC(=O)[*:2]].V.S.L.Y.R.D.P.L.G.V.A.G.E.M.G.V.Y.[am]}$$$$V2.0) | – | 10 µM | 50.1 µM
CC[C@@H]1NC(=O)[C@H](C(C)C)NC(=O)CNC(=O)[C@H](CCCc2ccccc2)NC(=O)[C@@H]2CCCN2C(=O)[C@H](CC(=O)O)NC(=O)[C@H](CCCNC(=N)N)NC(=O)[C@H](Cc2ccc(O)cc2)NC(=O)[C@@H](NC(=O)CCC(=O)O)CSSC[C@@H](C(N)=O)NC(=O)[C@H](CCSC)NC(=O)[C@H](CCC(=O)O)NC(=O)CNC1=O [CP141093, Suc-Cys-Tyr-Arg-Asp-Pro-Ph5-Gly-Val-Abu-Gly-Glu-Met-Cys-NH2] (HELM PEPTIDE1{[O=C(O)CCC(=O)[*:2]].C.Y.R.D.P.[O=C([C@H](CCCc1ccccc1)N[*:1])[*:2]].G.V.[Abu].G.E.M.C.[am]}$PEPTIDE1,PEPTIDE1,2:R3-14:R3$$$V2.0) | 20 µM | 10 µM | –
CSCC[C@@H]1NC(=O)[C@H](CCC(=O)O)NC(=O)CNC(=O)[C@H](C)NC(=O)[C@H](C(C)C)NC(=O)CNC(=O)[C@H](CC(C)C)NC(=O)[C@@H]2CCCN2C(=O)[C@H](CC(=O)O)NC(=O)[C@H](CCCNC(=N)N)NC(=O)[C@H](Cc2ccc(O)cc2)NC(=O)[C@H](CC(C)C)NC(=O)[C@@H](NC(=O)CCC(=O)O)CSSC[C@@H](C(N)=O)NC(=O)CNC1=O [CP141071, Suc-Cys-Leu-Tyr-Arg-Asp-Pro-Leu-Gly-Val-Ala-Gly-Glu-Met-Gly-Cys-NH2] (HELM PEPTIDE1{[O=C(O)CCC(=O)[*:2]].C.L.Y.R.D.P.L.G.V.A.G.E.M.G.C.[am]}$PEPTIDE1,PEPTIDE1,2:R3-16:R3$$$V2.0) | – | 0.501 µM | 2 µM
